Laboratory results from US4330529A, “Antibacterial composition” (Fujisawa Pharmaceutical Co., Ltd., priority 1979, dated 1982).
≈ marks a conversion by molar mass, not a printed value. Read-outs that look alike come from different tables or passages of the source.

How the values were obtained:
[1] = system: Pseudomonas aeruginosa 77; test: MIC and FIC, Nutrient agar (Test 7); assay type: cell-based; conditions: P. aeruginosa 77, 18 h
Description: (§1) FIC values and FIC Index were calculated in substantially the same manner as described in Test 1.

Proteus vulgaris 7 = test: MIC and FIC, Nutrient agar (Tests 7, 9); assay type: cell-based; conditions: P. vulgaris 7
Escherichia coli 82 = test: MIC and FIC, Nutrient agar (Test 7); assay type: cell-based; conditions: E. coli 82, 18 h
Description: as §1

Staphylococcus aureus 2 = test: MIC and FIC, Nutrient agar (Test 7); assay type: cell-based; conditions: S. aureus 2, 18 h
Description: as §1

Citrobacter freundii 35 = test: MIC and FIC, Nutrient agar (Tests 6, 7, 9); assay type: cell-based; conditions: C. freundii 35, 18 h
Proteus mirabilis 48 = test: MIC and FIC, Nutrient agar (Test 7); assay type: cell-based; conditions: P. mirabilis 48, 18 h
Description: as §1

[2] = system: Enterobacter aerogenes 25; test: microbe, parasite or virus in culture; conditions: Klebsiella aerogenes, 25, 18 h
[3] = system: Enterobacter cloacae 1401-4; test: MIC and FIC, Nutrient agar (Tests 2, 3); assay type: cell-based; conditions: E. cloacae 1401-4
[4] = system: Staphylococcus epidermidis 1601-1; test: MIC and FIC, Nutrient agar (Tests 2, 3); assay type: cell-based; conditions: 16011, S. epidermidis 1601-1, 20 h
Description: (§2) After the incubation was carried out at 37° C. for 20 hours, MIC values were determined.

[5] = system: Enterobacter aerogenes 1402-10; test: MIC and FIC, Nutrient agar (Tests 2, 3); assay type: cell-based; conditions: Klebsiella aerogenes, 140210; E. aerogenes 1402-10; 20 h; read-out: MIC
[6] = system: Klebsiella pneumoniae NCTC 418; test: MIC and FIC, Nutrient agar (Tests 2, 3); assay type: cell-based; conditions: NCTC418, K. pneumoniae NCTC 418, 20 h
Description: as §2

[7] = system: Proteus vulgaris IAM-1025; test: MIC and FIC, Nutrient agar (Test 2); assay type: cell-based; conditions: IAM1025, P. vulgaris IAM-1025, 20 h
Description: as §2, §1

[8] = system: Serratia marcescens 1421-4; test: MIC and FIC, Nutrient agar (Tests 2, 3); assay type: cell-based
[9] = system: Salmonella typhimurium 1406; test: MIC and FIC, Nutrient agar (Tests 2, 3); assay type: cell-based; conditions: Salmonella enterica, TYPHIMURIUM, 20 h
[10] = system: Alcaligenes faecalis 1311-1; test: MIC and FIC, Nutrient agar (Test 2); assay type: cell-based; conditions: 13111, A. faecalis 1311-1, 20 h
Description: as §2, §1

[11] = system: Salmonella paratyphi A-1015; test: MIC and FIC, Nutrient agar (Test 2); assay type: cell-based; conditions: Salmonella enterica; S. paratyphi A-1015; 20 h
Description: as §2, §1

[12] = system: Salmonella enteritidis 1891; test: MIC and FIC, Nutrient agar (Test 2); assay type: cell-based; conditions: Salmonella enterica; S. enteritidis 1891; 20 h
Description: as §2

Proteus morganii 1433-2 = test: MIC and FIC, Nutrient agar (Tests 2, 3); assay type: cell-based; conditions: Morganella morganii, 14332; P. morganii 1433-2; 20 h
Description: as §2

[13] = system: Proteus mirabilis 1432-75; test: MIC and FIC, Nutrient agar (Tests 2, 3); assay type: cell-based; conditions: Proteus mirabilis, 143275; P. mirabilis 1432-75; 20 h; read-out: MIC
[14] = system: Shigella flexneri Ia EW-8; test: MIC and FIC, Nutrient agar (Test 2); assay type: cell-based; conditions: IAEW8, S. flexneri Ia EW-8, 20 h
Description: as §2

[15] = system: Pseudomonas aeruginosa No.5; test: MIC and FIC, Nutrient agar, multiple inoculator (Tests 4, 5); assay type: cell-based; conditions: P. aeruginosa No.5, 10^8 cells/ml, 20 h
Description: as §2

[16] = system: Pseudomonas aeruginosa No.14; test: MIC and FIC, Nutrient agar, multiple inoculator (Test 4); assay type: cell-based; conditions: P. aeruginosa No.14, 10^8 cells/ml, 20 h
Description: as §2, §1

Escherichia coli No.14 = test: as above; assay type: cell-based; conditions: E. coli No.14, 10^8 cells/ml, 20 h
Description: as §2

[17] = system: Pseudomonas aeruginosa No.15; test: as above; assay type: cell-based; conditions: P. aeruginosa No.15, 10^8 cells/ml, 20 h
Description: as §2, §1

[18] = system: Pseudomonas aeruginosa No.7; test: as above; assay type: cell-based; conditions: P. aeruginosa No.7, 10^8 cells/ml, 20 h
Description: as §2, §1

[19] = system: Pseudomonas aeruginosa No.9; test: as above; assay type: cell-based; conditions: P. aeruginosa No.9, 10^8 cells/ml, 20 h
Description: as §2, §1

Enterobacter aerogenes 7 = test: MIC and FIC, Nutrient agar (Tests 6, 7, 9); assay type: cell-based; conditions: E. aerogenes 7, 18 h
Description: as §1

Serratia marcescens 27 = test: MIC and FIC, Nutrient agar (Test 7); assay type: cell-based; conditions: S. marcescens 27, 18 h
Description: as §1

[20] = system: Pseudomonas aeruginosa 42; test: MIC and FIC, Nutrient agar (Test 7); assay type: cell-based
Description: as §1

Proteus mirabilis 5 = test: MIC and FIC, Nutrient agar (Test 7); assay type: cell-based; conditions: P. mirabilis 5, 18 h
Description: as §1

Staphylococcus aureus 1 = test: MIC and FIC, Nutrient agar (Test 7); assay type: cell-based; conditions: S. aureus 1, 18 h
Description: as §1

[21] = system: Pseudomonas aeruginosa 1101-76; test: MIC and FIC, Nutrient agar (Test 3); assay type: cell-based; conditions: Pseudomonas aeruginosa, 110176; P. aeruginosa 1101-76; 20 h; read-out: MIC
Proteus rettgeri 1434-3 = test: MIC and FIC, Nutrient agar (Test 3); assay type: cell-based; conditions: Providencia rettgeri, 14343; P. rettgeri 1434-3; 20 h
Description: as §2, §1

[22] = system: Escherichia coli 1341-18R^+; test: MIC and FIC, Nutrient agar (Test 3); assay type: cell-based; conditions: 20 h
Enterobacter cloacae 18 = test: MIC and FIC, Nutrient agar (Tests 7, 9); assay type: cell-based; conditions: Enterobacter cloacae, 18, 18 h, E. cloacae 18, read-out: MIC
Description: as §1

Escherichia coli 116 = test: MIC and FIC, Nutrient agar (Test 7); assay type: cell-based; conditions: E. coli 116, 18 h
Description: as §1

Serratia marcescens 4 = test: MIC and FIC, Nutrient agar (Test 9); assay type: cell-based; conditions: S. marcescens 4, 18 h
Description: as §1

Citrobacter freundii 63 = test: MIC and FIC, Nutrient agar (Test 9); assay type: cell-based; conditions: C. freundii 63, 18 h
Description: as §1

Proteus vulgaris 22 = test: MIC and FIC, Nutrient agar (Test 9); assay type: cell-based; conditions: P. vulgaris 22, 18 h
Description: as §1

Serratia marcescens 9 = test: MIC and FIC, Nutrient agar (Test 6); assay type: cell-based; conditions: S. marcescens 9; 18 h
Description: as §1

Escherichia coli 99 = test: MIC and FIC, Nutrient agar (Test 6); conditions: E. coli 99; 18 h
Description: as §1

[23] = system: Pseudomonas aeruginosa No.13; test: MIC and FIC, Nutrient agar, multiple inoculator (Test 5); assay type: cell-based; conditions: P. aeruginosa No.13; 10^8 cells/ml, 20 h
Description: as §2, §1

Staphylococcus aureus 3 = test: MIC and FIC, Nutrient agar (Tests 6, 7); assay type: cell-based; conditions: S. aureus 3; 18 h
Description: as §1

Klebsiella pneumoniae 8 = test: Isobologram, growth in Nutrient broth in various combination ratios (Test 8); assay type: cell-based; design: key: +: the test microorganism grew; -: the test microorganism did not grow; conditions: phosphonic acid salt 0
Description: After the incubation was carried out at 37° C. for 18 hours, the growth of the test organism was observed.

Proteus vulgaris 5 = test: MIC and FIC, Nutrient agar (Test 6); assay type: cell-based; conditions: P. vulgaris 5; 18 h
Description: as §1

[24] = system: Pseudomonas aeruginosa No.11; test: MIC and FIC, Nutrient agar, multiple inoculator (Test 5); assay type: cell-based; conditions: P. aeruginosa No.11; 10^8 cells/ml, 20 h
Description: as §2, §1

[25] = system: Pseudomonas aeruginosa No.18; test: as above; assay type: cell-based; conditions: P. aeruginosa No.18; 10^8 cells/ml, 20 h
Description: as §2, §1

[26] = system: Pseudomonas aeruginosa No.12; test: as above; assay type: cell-based; conditions: P. aeruginosa No.12; 10^8 cells/ml, 20 h
Description: as §2, §1

[27] = Klebsiella aerogenes, read-out: MIC

NC[C@@H]1CC[C@@H](N)[C@@H](O[C@H]2[C@H](O)[C@@H](O[C@H]3O[C@H](CO)[C@@H](O)[C@H](N)[C@H]3O)[C@H](N)C[C@@H]2N)O1 [B (Table 10), dibekacin]
MIC [1]: 3.13 µg/mL | MIC (Proteus vulgaris 7; Proteus vulgaris, 7, 18 h): 50 µg/mL | MIC (Escherichia coli 82): 6.25 µg/mL | MIC (Staphylococcus aureus 2): 1.56 µg/mL | MIC (Citrobacter freundii 35; Citrobacter freundii, 35, 18 h): 6.25 µg/mL | MIC (Proteus mirabilis 48): 12.5 µg/mL | MIC [2]: 6.25 µg/mL (≈ 13.8 µM)

CC1(C)S[C@@H]2[C@H](NC(=O)[C@H](N)c3ccccc3)C(=O)N2[C@H]1C(=O)O [B (Table 2), ampicillin]
MIC ([3]; Enterobacter cloacae, 14014, 20 h): 100 µg/mL | MIC [4]: 0.2 µg/mL | MIC [5]: 200 µg/mL | MIC [6]: 12.5 µg/mL | MIC [7]: 0.78 µg/mL | MIC ([8]; Serratia marcescens, 14214, 20 h): 25 µg/mL | MIC [9]: 0.39 µg/mL | MIC [10]: 6.25 µg/mL | MIC [11]: 0.39 µg/mL | MIC [12]: 0.39 µg/mL | MIC (Proteus morganii 1433-2): 25 µg/mL | MIC [13]: 0.39 µg/mL | MIC [14]: 0.78 µg/mL

CC1(C)S[C@@H]2[C@H](NC(=O)C(C(=O)O)c3ccccc3)C(=O)N2[C@H]1C(=O)O (some centres unmarked) [B (Table 6), carbenicillin]
MIC ([15]; Pseudomonas aeruginosa, read-out: MIC): 50 µg/mL | MIC [16]: > 800 µg/mL | MIC (Escherichia coli No.14): 12.5 µg/mL | MIC [17]: 800 µg/mL | MIC [18]: > 800 µg/mL | MIC [19]: > 800 µg/mL

NCC[C@H](O)C(=O)N[C@@H]1C[C@H](N)[C@@H](O[C@H]2O[C@H](CN)[C@@H](O)[C@H](O)[C@H]2O)[C@H](O)[C@H]1O[C@H]1O[C@H](CO)[C@@H](O)[C@H](N)[C@H]1O [B (Table 11), amikacin]
MIC (Enterobacter aerogenes 7; [27]): 6.25 µg/mL | MIC (Serratia marcescens 27): 12.5 µg/mL | MIC ([20]; Pseudomonas aeruginosa, P. aeruginosa 42, 18 h, read-out: MIC): 6.25 µg/mL | MIC (Proteus mirabilis 5): 3.13 µg/mL | MIC (Staphylococcus aureus 1): 0.78 µg/mL

Cc1nnc(SCC2=C(C(=O)O)N3C(=O)[C@@H](NC(=O)Cn4cnnn4)[C@H]3SC2)s1 [B (Table 3), cefazolin]
MIC ([3]; Enterobacter cloacae, 14014, 20 h, read-out: MIC): ≥ 400 µg/mL | MIC [4]: 0.39 µg/mL | MIC [5]: 12.5 µg/mL | MIC (Proteus vulgaris 7; Proteus vulgaris, 18 h, read-out: MIC): 100 µg/mL | MIC [21]: ≥ 400 µg/mL | MIC [6]: 1.56 µg/mL | MIC ([8]; Serratia marcescens, 14214, S. marcescens 1421-4, agar, 20 h, read-out: MIC): 400 µg/mL | MIC (Proteus rettgeri 1434-3): 6.25 µg/mL | MIC (Proteus morganii 1433-2): 25 µg/mL | MIC (Citrobacter freundii 35; Citrobacter freundii, read-out: MIC): 50 µg/mL | MIC [22]: 3.13 µg/mL

NC[C@H]1O[C@H](O[C@H]2[C@H](O)[C@@H](O[C@H]3O[C@H](CO)[C@@H](O)[C@H](N)[C@H]3O)[C@H](N)C[C@@H]2N)[C@H](N)[C@@H](O)[C@@H]1O [B (Table 12), bekanamycin]
MIC (Enterobacter aerogenes 7; [27]): 6.25 µg/mL | MIC (Enterobacter cloacae 18): 6.25 µg/mL | MIC ([20]; Pseudomonas aeruginosa, 42, 18 h): 100 µg/mL | MIC (Escherichia coli 116): 200 µg/mL

CC1=C(C(=O)O)N2C(=O)[C@@H](NC(=O)[C@H](N)c3ccccc3)[C@H]2SC1 [B (Table 14), Cephalexin]
MIC (Enterobacter aerogenes 7; [27]): 100 µg/mL | MIC (Enterobacter cloacae 18): 100 µg/mL | MIC (Serratia marcescens 4): 400 µg/mL | MIC (Citrobacter freundii 63): 400 µg/mL | MIC (Proteus vulgaris 22): 25 µg/mL

gentamicin [B (Table 7)]
MIC (Enterobacter aerogenes 7): 6.25 µg/mL | MIC (Serratia marcescens 9): 50 µg/mL | MIC (Escherichia coli 99): 12.5 µg/mL | MIC [23]: 100 µg/mL | MIC (Staphylococcus aureus 3): 0.39 µg/mL | MIC [15]: 50 µg/mL | growth of the test organism (Klebsiella pneumoniae 8; gentamicin sulfate 0.001 mcg/ml): + | growth of the test organism (Klebsiella pneumoniae 8; gentamicin sulfate 0.003 mcg/ml): + | growth of the test organism (Klebsiella pneumoniae 8; gentamicin sulfate 0.006 mcg/ml): + | growth of the test organism (Klebsiella pneumoniae 8; gentamicin sulfate 0.01 mcg/ml): + | growth of the test organism (Klebsiella pneumoniae 8; gentamicin sulfate 0.025 mcg/ml): + | growth of the test organism (Klebsiella pneumoniae 8; gentamicin sulfate 0.05 mcg/ml): - | MIC (Proteus vulgaris 5): 6.25 µg/mL | MIC [24]: 3.13 µg/mL | MIC (Citrobacter freundii 35): 3.13 µg/mL | MIC [25]: 50 µg/mL | MIC [26]: 12.5 µg/mL
